{"source": "patent US9155702B2", "about": "“Composition and microsphere for controlled-release of exendin, and method preparing the same” (PEPTRON CO., LTD, priority 2007, dated 2015)", "origin": "cited, not measured here", "system": "diabetic ob/ob mice", "settings": "intraperitoneal injections once per day"}
{"substance": "exendin-4", "values": [{"measurement": "effect of lowering the blood-sugar level", "value": "prolonged effect of lowering the blood-sugar level"}]}
